Target: PI3K delta (Homo sapiens, UniProt O00329)
Experiment: Luciferase-coupled chemiluminescence kinase assay (ATP consumption, KinaseGlo)
Type: biochemical
Outline: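 Compound, kinase and ATP (≤ KM) reacted 2 h at ambient temperature, then remaining ATP quantified with luciferase-luciferin (KinaseGlo) luminescence as percent consumed.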

Sequence of PI3K delta (O00329 whole entry): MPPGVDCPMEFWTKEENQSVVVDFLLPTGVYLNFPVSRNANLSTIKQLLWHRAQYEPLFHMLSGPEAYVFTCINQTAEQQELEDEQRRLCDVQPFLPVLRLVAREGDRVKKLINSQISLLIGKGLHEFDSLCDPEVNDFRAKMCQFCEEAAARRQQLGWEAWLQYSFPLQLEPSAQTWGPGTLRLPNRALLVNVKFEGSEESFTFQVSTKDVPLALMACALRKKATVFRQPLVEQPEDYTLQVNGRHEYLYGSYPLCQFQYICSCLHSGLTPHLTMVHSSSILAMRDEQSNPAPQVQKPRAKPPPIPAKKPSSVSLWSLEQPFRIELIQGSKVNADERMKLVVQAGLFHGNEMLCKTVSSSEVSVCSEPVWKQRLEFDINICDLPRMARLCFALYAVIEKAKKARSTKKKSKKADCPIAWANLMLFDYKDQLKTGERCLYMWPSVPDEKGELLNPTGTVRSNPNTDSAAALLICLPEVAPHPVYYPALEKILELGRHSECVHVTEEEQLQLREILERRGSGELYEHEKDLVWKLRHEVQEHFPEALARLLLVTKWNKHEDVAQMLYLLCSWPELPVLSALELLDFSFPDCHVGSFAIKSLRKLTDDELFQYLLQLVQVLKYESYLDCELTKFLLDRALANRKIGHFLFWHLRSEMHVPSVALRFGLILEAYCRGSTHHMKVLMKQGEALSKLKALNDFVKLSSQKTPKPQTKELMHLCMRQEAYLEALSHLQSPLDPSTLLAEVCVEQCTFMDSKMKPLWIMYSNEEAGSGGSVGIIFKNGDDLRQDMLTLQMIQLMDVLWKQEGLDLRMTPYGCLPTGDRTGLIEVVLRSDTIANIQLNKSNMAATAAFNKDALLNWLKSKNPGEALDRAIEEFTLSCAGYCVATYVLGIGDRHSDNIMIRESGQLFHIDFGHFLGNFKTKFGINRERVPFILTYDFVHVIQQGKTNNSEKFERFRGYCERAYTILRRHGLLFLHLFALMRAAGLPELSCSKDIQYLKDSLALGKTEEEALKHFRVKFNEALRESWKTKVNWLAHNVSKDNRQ
Sequence of PI3K delta (P27986 whole entry partner): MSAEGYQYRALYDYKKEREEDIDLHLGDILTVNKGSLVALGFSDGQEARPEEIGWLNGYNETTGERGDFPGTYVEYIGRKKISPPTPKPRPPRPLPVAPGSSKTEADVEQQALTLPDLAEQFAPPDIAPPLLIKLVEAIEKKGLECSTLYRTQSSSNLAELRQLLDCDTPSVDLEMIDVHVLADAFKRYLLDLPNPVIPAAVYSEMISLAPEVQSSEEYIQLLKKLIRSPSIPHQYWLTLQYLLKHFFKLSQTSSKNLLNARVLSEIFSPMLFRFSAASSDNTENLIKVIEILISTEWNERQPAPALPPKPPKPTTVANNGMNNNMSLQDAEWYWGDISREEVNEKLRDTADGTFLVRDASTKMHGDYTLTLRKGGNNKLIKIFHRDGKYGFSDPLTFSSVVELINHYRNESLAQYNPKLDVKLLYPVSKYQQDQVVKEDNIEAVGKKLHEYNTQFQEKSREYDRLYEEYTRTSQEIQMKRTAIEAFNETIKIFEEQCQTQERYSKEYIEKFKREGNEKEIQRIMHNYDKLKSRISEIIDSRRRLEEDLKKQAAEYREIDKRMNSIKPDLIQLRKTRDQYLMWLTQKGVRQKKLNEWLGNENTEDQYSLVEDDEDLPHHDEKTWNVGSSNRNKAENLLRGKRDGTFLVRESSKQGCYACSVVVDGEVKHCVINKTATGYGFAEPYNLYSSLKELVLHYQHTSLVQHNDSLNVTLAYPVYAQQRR

Row | SMILES | IC50
1 | O=C(NCC1CC1)c1nc2c(N3CCC(n4c(=O)[nH]c5ccccc54)CC3)ncnc2n1C1CC1 [Compound 171, 9-Cyclopropyl-N-(cyclopropylmethyl)-6-[4-(2-oxo-2,3-dihydro-1H-benzimidazol-1-yl)piperidin-1-yl]-9H-purine-8-carboxamide] | 50 to 250 nM
2 | Cn1c(C(=O)NCC2CC2)nc2c(N3CCC(n4c(=O)[nH]c5ccccc54)C3)ncnc21 (centres unmarked) [Compound 172, N-(cyclopropylmethyl)-9-methyl-6-[3-(2-oxo-2,3-dihydro-1H-benzimidazol-1-yl)pyrrolidin-1-yl]-9H-purine-8-carboxamide] | 500 to 1500 nM
3 | CC(C)CNC(=O)c1nc2c(N3CCC(n4c(=O)[nH]c5ccccc54)CC3)ncnc2n1C1CC1 [Compound 173, 9-cyclopropyl-N-(2-methylpropyl)-6-[4-(2-oxo-2,3-dihydro-1H-benzimidazol-1-yl)piperidin-1-yl]-9H-purine-8-carboxamide] | 250 to 500 nM
4 | CC(C)CNC(=O)c1nc2c(N3CCC(n4c(=O)[nH]c5ccccc54)CC3)ncnc2n1CC(F)(F)F [Compound 183, N-(2-methylpropyl)-6-[4-(2-oxo-2,3-dihydro-1H-benzimidazol-1-yl)piperidin-1-yl]-9-(2,2,2-trifluoroethyl)-9H-purine-8-carboxamide] | 250 to 500 nM
5 | CCn1c(C(=O)NCC2CCC2)nc2c(N3CCC(n4c(=O)[nH]c5ccccc54)CC3)ncnc21 [Compound 185, N-(cyclobutylmethyl)-9-ethyl-6-[4-(2-oxo-2,3-dihydro-1H-benzimidazol-1-yl)piperidin-1-yl]-9H-purine-8-carboxamide] | < 50 nM
6 | CCn1c(C(=O)N2CC[C@@H](F)C2)nc2c(N3CCC(n4c(=O)[nH]c5ccccc54)CC3)ncnc21 [Compound 186, 1-[1-(9-ethyl-8-{[(3R)-3-fluoropyrrolidin-1-yl]carbonyl}-9H-purin-6-yl)piperidin-4-yl]-1,3-dihydro-2H-benzimidazol-2-one] | < 50 nM
7 | CCn1c(C(=O)NC(C)C2CC2)nc2c(N3CCC(n4c(=O)[nH]c5ccccc54)CC3)ncnc21 (centres unmarked) [Compound 187, N-(1-cyclopropylethyl)-9-ethyl-6-[4-(2-oxo-2,3-dihydro-1H-benzimidazol-1-yl)piperidin-1-yl]-9H-purine-8-carboxamide] | < 50 nM
8 | CCn1c(C(=O)NCC(C)(C)C)nc2c(N3CCC(n4c(=O)[nH]c5ccccc54)CC3)ncnc21 [Compound 190, N-(2,2-dimethylpropyl)-9-ethyl-6-[4-(2-oxo-2,3-dihydro-1H-benzimidazol-1-yl)piperidin-1-yl]-9H-purine-8-carboxamide] | < 50 nM
9 | CCNC(=O)c1nc2c(N3CCC(n4c(=O)[nH]c5ccccc54)CC3)ncnc2n1CC [Compound 192, N,9-diethyl-6-[4-(2-oxo-2,3-dihydro-1H-benzimidazol-1-yl)piperidin-1-yl]-9H-purine-8-carboxamide] | 50 to 250 nM
10 | CCCNC(=O)c1nc2c(N3CCC(n4c(=O)[nH]c5ccccc54)CC3)ncnc2n1CC [Compound 193, 9-ethyl-6-[4-(2-oxo-2,3-dihydro-1H-benzimidazol-1-yl)piperidin-1-yl]-N-propyl-9H-purine-8-carboxamide] | < 50 nM
11 | CCn1c(C(=O)NC2CCC2)nc2c(N3CCC(n4c(=O)[nH]c5ccccc54)CC3)ncnc21 [Compound 194, N-cyclobutyl-9-ethyl-6-[4-(2-oxo-2,3-dihydro-1H-benzimidazol-1-yl)piperidin-1-yl]-9H-purine-8-carboxamide] | < 50 nM
12 | CCn1c(C(=O)NCCCCO)nc2c(N3CCC(n4c(=O)[nH]c5ccccc54)CC3)ncnc21 [Compound 195, 9-ethyl-N-(4-hydroxybutyl)-6-[4-(2-oxo-2,3-dihydro-1H-benzimidazol-1-yl)piperidin-1-yl]-9H-purine-8-carboxamide] | < 50 nM
13 | CCn1c(C(=O)NC(C)C)nc2c(N3CCC(n4c(=O)[nH]c5ccccc54)CC3)ncnc21 [Compound 196, 9-ethyl-N-(1-methylethyl)-6-[4-(2-oxo-2,3-dihydro-1H-benzimidazol-1-yl)piperidin-1-yl]-9H-purine-8-carboxamide] | < 50 nM
14 | CCn1c(C(=O)NCC(C)(C)O)nc2c(N3CCC(n4c(=O)[nH]c5ccccc54)CC3)ncnc21 [Compound 197, 9-ethyl-N-(2-hydroxy-2-methylpropyl)-6-[4-(2-oxo-2,3-dihydro-1H-benzimidazol-1-yl)piperidin-1-yl]-9H-purine-8-carboxamide] | < 50 nM

More lines, now with the values ahead:

Row | IC50 | SMILES
15 | 500 to 1500 nM | Cn1c(-c2cc[nH]c2)nc2c(N3CCC(n4c(=O)[nH]c5ccccc54)CC3)ncnc21 [Compound 166, 1-{1-[9-methyl-8-(1H-pyrrol-3-yl)-9H-purin-6-yl]piperidin-4-yl}-1,3-dihydro-2H-benzimidazol-2-one]
16 | < 50 nM | C=C(C)c1cn(-c2nc3c(N4CCC(n5c(=O)[nH]c6ccccc65)CC4)ncnc3n2C)cn1 [Compound 167, 1-(1-{9-methyl-8-[4-(1-methylethenyl)-1H-imidazol-1-yl]-9H-purin-6-yl}piperidin-4-yl)-1,3-dihydro-2H-benzimidazol-2-one]
17 | < 50 nM | Cn1c(C(=O)NCC2CC2)nc2c(N3CCC4(CC3)C(=O)Nc3c(Br)cccc34)ncnc21 [Compound 168, 6-(7-bromo-2-oxo-1,2-dihydro-1′H-spiro[indole-3,4′-piperidin]-1′-yl)-N-(cyclopropylmethyl)-9-methyl-9H-purine-8-carboxamide]
18 | 50 to 250 nM | Cn1c(C(=O)NCC2CC2)nc2c(N3CCC(n4c(=S)[nH]c5ccccc54)CC3)ncnc21 [Compound 169, N-(cyclopropylmethyl)-9-methyl-6-[4-(2-thioxo-2,3-dihydro-1H-benzimidazol-1-yl)piperidin-1-yl]-9H-purine-8-carboxamide]
19 | 250 to 500 nM | Cn1c(C(=O)NCC2CC2)nc2c(N3CCC4(CC3)CC(=O)Nc3ccccc3O4)ncnc21 [Compound 170, N-(cyclopropylmethyl)-9-methyl-6-(4-oxo-4,5-dihydro-1′H,3H-spiro[1,5-benzoxazepine-2,4′-piperidin]-1′-yl)-9H-purine-8-carboxamide]
20 | < 50 nM | CC(C)c1nnc(-c2nc3c(N4CCC5(CC4)C(=O)Nc4ccccc45)ncnc3n2C)o1 [Compound 174, 1′-{9-methyl-8-[5-(1-methylethyl)-1,3,4-oxadiazol-2-yl]-9H-purin-6-yl}spiro[indole-3,4′-piperidin]-2(1H)-one]
21 | 50 to 250 nM | O=C(NCC1CC1)c1nc2c(N3CCC4(CC3)C(=O)Nc3ccccc34)ncnc2n1C1CC1 [Compound 175, 9-cyclopropyl-N-(cyclopropylmethyl)-6-(2-oxo-1,2-dihydro-1′H-spiro[indole-3,4′-piperidin]-1′-yl)-9H-purine-8-carboxamide]
22 | 50 to 250 nM | CC(C)CNC(=O)c1nc2c(N3CCC4(CC3)C(=O)Nc3ccccc34)ncnc2n1C1CC1 [Compound 176, 9-cyclopropyl-N-(2-methylpropyl)-6-(2-oxo-1,2-dihydro-1′H-spiro[indole-3,4′-piperidin]-1′-yl)-9H-purine-8-carboxamide]
23 | < 50 nM | CCCc1nnc(-c2nc3c(N4CCC5(CC4)C(=O)Nc4ccccc45)ncnc3n2C)o1 [Compound 177, 1′-[9-methyl-8-(5-propyl-1,3,4-oxadiazol-2-yl)-9H-purin-6-yl]spiro[indole-3,4′-piperidin]-2(1H)-one]
24 | 50 to 250 nM | Cn1c(-c2cnn(CCO)c2)nc2c(N3CCC(n4c(=O)[nH]c5ccccc54)CC3)ncnc21 [Compound 178, 1-{1-(8-[1-(2-hydroxyethyl)-1H-pyrazol-4-yl]-9-methyl-9H-purin-6-yl}piperidin-4-yl)-1,3-dihydro-2H-benzimidazol-2-one]
25 | 500 to 1500 nM | Cn1c(-c2cocn2)nc2c(N3CCC(n4c(=O)[nH]c5ccccc54)CC3)ncnc21 [Compound 179, 1-{1-[9-methyl-8-(1,3-oxazol-4-yl)-9H-purin-6-yl]piperidin-4-yl}-1,3-dihydro-2H-benzimidazol-2-one]
26 | < 50 nM | CCn1c(-c2nnc(C(C)C)o2)nc2c(N3CCC(n4c(=O)[nH]c5ccccc54)CC3)ncnc21 [Compound 180, 1-(1-{9-ethyl-8-[5-(1-methylethyl)-1,3,4-oxadiazol-2-yl]-9H-purin-6-yl}piperidin-4-yl)-1,3-dihydro-2H-benzimidazol-2-one]
27 | 250 to 500 nM | CCOC(=O)Cn1cc(-c2nc3c(N4CCC(n5c(=O)[nH]c6ccccc65)CC4)ncnc3n2C)cn1 [Compound 181, ethyl (4-{9-methyl-6-[4-(2-oxo-2,3-dihydro-1H-benzimidazol-1-yl)piperidin-1-yl]-9H-purin-8-yl}-1H-pyrazol-1-yl)acetate]
28 | < 50 nM | CCc1nnc(-c2nc3c(N4CCC5(CC4)C(=O)Nc4ccccc45)ncnc3n2C)o1 [Compound 182, 1′-[8-(5-ethyl-1,3,4-oxadiazol-2-yl)-9-methyl-9H-purin-6-yl]spiro[indole-3,4′-piperidin]-2(1H)-one]
29 | < 50 nM | Cn1c(-c2nnc(C3CC3)o2)nc2c(N3CCC4(CC3)C(=O)Nc3ccccc34)ncnc21 [Compound 184, 1′-[8-(5-cyclopropyl-1,3,4-oxadiazol-2-yl)-9-methyl-9H-purin-6-yl]spiro[indole-3,4′-piperidin]-2(1H)-one]
30 | < 50 nM | CCn1c(C(=O)NCC2(O)CC2)nc2c(N3CCC(n4c(=O)[nH]c5ccccc54)CC3)ncnc21 [Compound 188, 9-ethyl-N-[(1-hydroxycyclopropyl)methyl]-6-[4-(2-oxo-2,3-dihydro-1H-benzimidazol-1-yl)piperidin-1-yl]-9H-purine-8-carboxamide]
31 | < 50 nM | CCn1c(C(=O)N2CC(F)(F)C2)nc2c(N3CCC(n4c(=O)[nH]c5ccccc54)CC3)ncnc21 [Compound 189, 1-(1-{8[(3,3-difluoroazetidin-1-yl)carbonyl]-9-ethyl-9H-purin-6-yl}piperidin-4-yl)-1,3-dihydro-2H-benzimidazol-2-one]
32 | < 50 nM | CCn1c(C(=O)N2CCC(F)(F)C2)nc2c(N3CCC(n4c(=O)[nH]c5ccccc54)CC3)ncnc21 [Compound 191, 1-(1-{8-[(3,3-difluoropyrrolidin-1-yl)carbonyl]-9-ethyl-9H-purin-6-yl}piperidin-4-yl)-1,3-dihydro-2H-benzimidazol-2-one]
